What all share (test): Post-emergence efficacy, glasshouse, evaluated after 13 days
Common to all, as to assay type: in vivo

In assay [1] the test system is Digitaria sanguinalis (DIGSA). Particulars: Digitaria sanguinalis, 312 h, read-out: Control of weed species DIGSA (100=total damage to plant; 0=no damage to plant). Here is the method: (§1) Seeds of a variety of test species were sown in standard soil in pots. After cultivation for 14 days (post-emergence) under controlled conditions in a glasshouse (at 24/16° C., day/night; 14 hours light; 65% humidity), the plants were sprayed with an aqueous spray solution derived from the dissolution of the technical active ingredient formula (I) in a small amount of acetone and a special solvent and emulsifier mixture referred to as IF50 (11.12% Emulsogen EL360 TM+44.44% N-methylpyrrolidone+44.44% Dowanol DPM glycol ether), to create a 50 g/l solution which was then diluted to required concentration using 0.25% or 1% Empicol ESC70 (Sodium lauryl ether sulphate)+1% ammonium sulphate as diluent.
(§2) The test plants were then grown in a glasshouse under controlled conditions (at 24/16° C., day/night; 14 hours light; 65% humidity) and watered twice daily. After 13 days the test was evaluated (100=total damage to plant; 0=no damage to plant).
(§3) Ipomoea hederacea (IPOHE), Euphorbia heterophylla (EPHHL), Chenopodium album (CHEAL), Amaranthus palmeri (AMAPA), Lolium perenne (LOLPE), Digitaria sanguinalis (DIGSA), Eleusine indica (ELEIN), Echinochloa crus-galli (ECHCG), Setaria faberi (SETFA)

Assay [2] concerns Euphorbia heterophylla (EPHHL). Particulars: Euphorbia heterophylla, 312 h, read-out: Control of weed species EPHHL (100=total damage to plant; 0=no damage to plant). The protocol:
as §1, §2, §3

For assay [3], the system named is Echinochloa crus-galli (ECHCG). Conditions: Echinochloa crus-galli, 312 h, read-out: Control of weed species ECHCG (100=total damage to plant; 0=no damage to plant). Here is the method: as §1, §2, §3
Assay [4] relates to Lolium perenne (LOLPE). Conditions: Lolium perenne, 312 h, read-out: Control of weed species LOLPE (100=total damage to plant; 0=no damage to plant). The protocol:
as §1, §2, §3

The subject of assay [5] is Amaranthus palmeri (AMAPA). Conditions: Amaranthus palmeri, 312 h, read-out: Control of weed species AMAPA (100=total damage to plant; 0=no damage to plant). Here is the method:
as §1, §2, §3

Assay [6] relates to Eleusine indica (ELEIN). Particulars: Eleusine indica, 312 h, read-out: Control of weed species ELEIN (100=total damage to plant; 0=no damage to plant). Here is the method: as §1, §2, §3
Assay [7] has as its system Setaria faberi (SETFA). Conditions: Setaria faberi, 312 h, read-out: Control of weed species SETFA (100=total damage to plant; 0=no damage to plant). The protocol: as §1, §2, §3
In assay [8] the test system is Ipomoea hederacea (IPOHE). Particulars: Ipomoea hederacea, 312 h, read-out: Control of weed species IPOHE (100=total damage to plant; 0=no damage to plant). Here is the method:
as §1, §2, §3

For assay [9], the system named is Chenopodium album (CHEAL). Particulars: Chenopodium album, 312 h, read-out: Control of weed species CHEAL (100=total damage to plant; 0=no damage to plant). The protocol: as §1, §2, §3
[10] abbreviates: post-emergence application, 500 g/Ha, evaluated after 13 days.

Where a name gives a salt, the structure may show the parent alone. Read-outs that look alike come from different tables or passages of the source.

The values that follow come from patent US20210403435A1, “HERBICIDAL COMPOUNDS” (SYNGENTA CROP PROTECTION AG, priority 2018, published 2021).

As to `CCNC(=O)c1cc[n+](C(C)(C)CC(=O)O)nc1` [Compound A71], the pest or weed control at 500 g/ha in assay [1] (setting [10]) stood at 60%; in assay [2] (setting [10]) it was 20%; in assay [3] (setting [10]), 30%; in assay [4] (setting [10]) it was 30%; in [5] (setting [10]) it was 100%; in [6] (setting [10]) it was 30%. Besides, the pest or weed control at 500 g/ha stood at 30% in assay [7] (setting [10]), 60% in assay [8] (setting [10]) and 70% in [9] (setting [10]).
As for `O=C(O)CC[n+]1ccc(C(=O)NC2CCCCC2)cn1` [Compound A59], the pest or weed control at 500 g/ha in assay [1] (setting [10]) is 60%; in assay [2] (setting [10]) it was 10%; in assay [3] (setting [10]) it was 20%; in assay [4] (setting [10]) it was 20%; in assay [5] (setting [10]) it was 70%; in [6] (setting [10]) it was 20%. Further, the pest or weed control at 500 g/ha amounted to 30% in assay [7] (setting [10]), 20% in [8] (setting [10]) and 50% in [9] (setting [10]).
On to `CC(C)(CO)NC(=O)c1cc[n+](CCC(=O)O)nc1` [Compound A100], for which the pest or weed control at 500 g/ha in assay [1] (setting [10]) was 70%; in assay [2] (setting [10]) it was 30%; in [3] (setting [10]) it was 60%; in [4] (setting [10]), 50%; in assay [5] (setting [10]), 60%; in assay [6] (setting [10]), 40%. The pest or weed control at 500 g/ha in assay [7] (setting [10]) turned out to be 90%; in assay [8] (setting [10]) it was 20%; in assay [9] (setting [10]), 20%.
Turning to `CCCCNC(=O)c1cc[n+](CCS(=O)(=O)[O-])nc1` [Compound A50], the pest or weed control at 500 g/ha in assay [1] (setting [10]) worked out at 60%; in assay [2] (setting [10]), 40%; in assay [3] (setting [10]) it was 40%; in assay [4] (setting [10]), 20%; in assay [5] (setting [10]) it was 60%; in assay [6] (setting [10]), 10%. For the same compound, the figures for the pest or weed control at 500 g/ha in assay [7] (setting [10]), in [8] (setting [10]) and in assay [9] (setting [10]) were 60%, 60% and 70%, respectively.
Take `C=CCNC(=O)c1cc[n+](CCS(=O)(=O)[O-])nc1` [Compound A18]: the pest or weed control at 500 g/ha amounted to 80% in assay [1] (setting [10]); 70% in assay [2] (setting [10]); 90% in assay [3] (setting [10]); 70% in assay [4] (setting [10]); 100% in assay [5] (setting [10]); 90% in assay [6] (setting [10]). Besides, the pest or weed control at 500 g/ha was determined as 50% in assay [7] (setting [10]), 70% in assay [8] (setting [10]) and 90% in [9] (setting [10]).
Regarding `O=C(O)CC[n+]1ccc(C(=O)NC2CC2)cn1` [Compound A31], the pest or weed control at 500 g/ha in assay [1] (setting [10]) came out at 100%; in assay [2] (setting [10]) it was 100%; in [3] (setting [10]), 70%; in assay [4] (setting [10]), 70%; in assay [5] (setting [10]) it was 100%; in assay [6] (setting [10]), 100%. Also, the results for the pest or weed control at 500 g/ha in [7] (setting [10]), in assay [8] (setting [10]) and in [9] (setting [10]) were 100%, 30% and 100%, respectively.
Regarding `COCCNC(=O)c1cc[n+](CCS(=O)(=O)[O-])nc1` [Compound A52], the pest or weed control at 500 g/ha in assay [1] (setting [10]) turned out to be 90%; in assay [2] (setting [10]), 60%; in assay [3] (setting [10]) it was 80%; in [4] (setting [10]) it was 30%; in assay [5] (setting [10]), 100%; in assay [6] (setting [10]), 20%. Besides, the pest or weed control at 500 g/ha in [7] (setting [10]) amounted to 80%; in assay [8] (setting [10]), 60%; in [9] (setting [10]), 100%.
`O=C(O)CC[n+]1ccc(C(=O)N2CC[S+]([O-])CC2)cn1` [Compound A109]: the pest or weed control at 500 g/ha in [1] (setting [10]) amounted to 80%; in assay [2] (setting [10]), 90%; in assay [3] (setting [10]), 70%; in assay [4] (setting [10]), 30%; in assay [5] (setting [10]) it was 100%; in [6] (setting [10]) it was 90%. Also, the values for the pest or weed control at 500 g/ha in [7] (setting [10]), in assay [8] (setting [10]) and in assay [9] (setting [10]) were 90%, 60% and 90%, respectively.
Turning to `O=C(O)CC[n+]1ccc(C(=O)N2CCCCC2)cn1` [Compound A24, 3-[4-(piperidine-1-carbonyl)pyridazin-1-ium-1-yl]propanoic acid trifluoroacetate], the pest or weed control at 500 g/ha was found to be 70% in assay [1] (post-emergence); 90% in [2] (post-emergence); 60% in assay [3] (post-emergence); 30% in assay [4] (post-emergence); 100% in [5] (post-emergence); 60% in assay [6] (post-emergence). Besides, the values for the pest or weed control at 500 g/ha in assay [7] (post-emergence), in assay [8] (post-emergence) and in assay [9] (post-emergence) were 60%, 30% and 90%, respectively.
Regarding `CCS(=O)(=O)CCNC(=O)c1cc[n+](CCC(=O)O)nc1` [Compound A118], the pest or weed control at 500 g/ha came to 100% in [1] (setting [10]); 90% in assay [2] (setting [10]); 40% in [3] (setting [10]); 50% in [4] (setting [10]); 100% in assay [5] (setting [10]); 50% in [6] (setting [10]). Besides, the pest or weed control at 500 g/ha in [7] (setting [10]) was 90%; in [8] (setting [10]), 40%; in assay [9] (setting [10]) it was 100%.
For the compound `CC[S+]([O-])CCNC(=O)c1cc[n+](CCC(=O)O)nc1` (stereo not drawn) [Compound A117], the pest or weed control at 500 g/ha amounted to 100% in assay [1] (setting [10]); 90% in [2] (setting [10]); 60% in [3] (setting [10]); 50% in [4] (setting [10]); 100% in assay [5] (setting [10]); 50% in assay [6] (setting [10]). Besides, the pest or weed control at 500 g/ha in assay [7] (setting [10]) came out at 90%; in assay [8] (setting [10]) it was 40%; in [9] (setting [10]) it was 80%.
Take `O=C(O)CC[n+]1ccc(C(=O)Nc2ccon2)cn1` [Compound A41]: the pest or weed control at 500 g/ha in assay [1] (setting [10]) was found to be 70%; in assay [2] (setting [10]), 90%; in assay [3] (setting [10]), 50%; in [4] (setting [10]) it was 10%; in [5] (setting [10]) it was 80%; in assay [6] (setting [10]), 60%. The pest or weed control at 500 g/ha in assay [7] (setting [10]) is 90%; in [8] (setting [10]), 20%; in [9] (setting [10]), 90%.
